These results are taken from patent publication US11077100B2, “Tetrahydroquinoline derivatives as P2X7 receptor antagonists” (RaQualia Pharma Inc., priority 2017, dated 2021).

Test [1] addresses rat P2X7 (Rattus norvegicus (Rat), UniProt Q64663). Description: Rat P2X7 functional assay (Ca2+ influx, Fluo-4, FDSS). The following applies: HEK293 cells stably expressing rat P2X7; BzATP final 10 microM; 7-point dose-response; read-out: Antagonistic activities with respect to the rat P2X7 receptor (IC50). The format is cell-based. Summed up:
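HEK293 cells stably expressing rat P2X7 (5,000/well, plated 24 h before) loaded with Fluo-4; compounds preincubated 10 min at room temperature, then Ca2+ rise after 10 microM BzATP (final) read on FDSS (480/540 nm). IC50 from 7-point curves, duplicate wells.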

For test [2], the target named is human P2X7 (Homo sapiens (Human), UniProt Q99572). Description: Human P2X7 functional assay (Ca2+ influx, Fluo-4, FDSS). The format is cell-based. The note with it: antagonistic activity with respect to the human P2X7 receptor; BzATP final concentration 80 microM. An outline of the steps: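 HEK293 cells stably expressing C-terminally FLAG-tagged human P2X7, loaded with Fluo-4. Compounds were preincubated for 10 min at room temperature, then 80 μM BzATP (final) was added and Ca2+ fluorescence read at 540 nm (480 nm excitation) by FDSS. IC50 values come from 7-point curves, duplicate wells.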

Molecules are shown by their SMILES. A value given as a limit tells only on which side of the number the result lay.

Chain of rat P2X7 (Q64663 whole entry): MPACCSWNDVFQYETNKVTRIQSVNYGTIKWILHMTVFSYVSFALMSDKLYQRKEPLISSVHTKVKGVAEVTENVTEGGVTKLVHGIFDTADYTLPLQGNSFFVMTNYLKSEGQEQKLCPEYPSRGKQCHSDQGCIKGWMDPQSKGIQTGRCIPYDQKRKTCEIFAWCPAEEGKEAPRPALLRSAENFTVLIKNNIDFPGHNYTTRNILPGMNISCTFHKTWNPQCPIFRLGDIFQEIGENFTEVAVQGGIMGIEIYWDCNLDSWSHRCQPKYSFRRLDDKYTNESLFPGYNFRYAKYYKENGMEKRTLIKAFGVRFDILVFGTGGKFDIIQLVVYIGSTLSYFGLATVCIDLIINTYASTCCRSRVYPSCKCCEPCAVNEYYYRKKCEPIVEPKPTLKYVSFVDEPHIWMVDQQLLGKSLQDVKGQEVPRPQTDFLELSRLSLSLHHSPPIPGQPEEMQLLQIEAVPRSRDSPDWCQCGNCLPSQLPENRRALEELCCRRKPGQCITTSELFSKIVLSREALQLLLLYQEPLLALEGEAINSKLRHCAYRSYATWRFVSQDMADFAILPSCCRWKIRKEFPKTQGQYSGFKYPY
Chain of human P2X7 (Q99572 whole entry): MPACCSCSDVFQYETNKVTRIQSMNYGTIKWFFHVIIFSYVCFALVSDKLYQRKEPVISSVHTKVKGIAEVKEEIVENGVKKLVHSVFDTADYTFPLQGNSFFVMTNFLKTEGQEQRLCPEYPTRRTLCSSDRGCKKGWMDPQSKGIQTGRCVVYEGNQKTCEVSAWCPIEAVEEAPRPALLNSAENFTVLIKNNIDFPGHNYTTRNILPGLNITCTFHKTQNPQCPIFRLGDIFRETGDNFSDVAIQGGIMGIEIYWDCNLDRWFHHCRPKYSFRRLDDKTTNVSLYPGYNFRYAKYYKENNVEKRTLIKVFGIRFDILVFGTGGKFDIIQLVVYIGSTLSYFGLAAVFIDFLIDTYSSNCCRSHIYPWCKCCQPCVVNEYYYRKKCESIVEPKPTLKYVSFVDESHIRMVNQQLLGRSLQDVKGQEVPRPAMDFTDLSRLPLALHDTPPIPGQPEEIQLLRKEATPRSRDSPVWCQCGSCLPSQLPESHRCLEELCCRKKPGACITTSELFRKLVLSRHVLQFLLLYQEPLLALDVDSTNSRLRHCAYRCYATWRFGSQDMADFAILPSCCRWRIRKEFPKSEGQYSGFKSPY

For orientation: IC50 means the concentration that inhibits the measured activity by half. Regarding `O=C(NCc1cccc(Cl)c1Cl)C1(F)CCC(O)(CO)c2ncccc21` (centres unmarked) [Example 36, N-(2,3-dichlorobenzyl)-5-fluoro-8-hy-droxy-8-(hydroxymethyl)-5,6,7,8-tetra-hydroquinoline-5-carboxamide], the results for the IC50 in test [1] and in test [2] were below 1 µM and below 0.05 µM, respectively.
The like results for `COCC1(O)CCC(F)(C(=O)NCc2cccc(C(F)(F)F)c2Cl)c2cccnc21` (centres unmarked) [Example 40, N-(2-chloro-3-(tri-fluoromethyl)benzyl)-5-fluoro-8-hydroxy-8-(methoxy-methyl)-5,6,7,8-tetra-hydroquinoline-5-carboxamide] were, in that order, below 1 µM and below 0.05 µM.
Turning to `C[C@]1(O)CC[C@@](F)(C(=O)NCc2ccc(F)c(Cl)c2F)c2cccnc21` [Example 268, (5S,8S)-N-(3-chloro-2,4-difluorobenzyl)-5-fluoro-8-hydroxy-8-methyl-5,6,7,8-tetrahydroquinoline-5-carboxamide], the IC50 in test [1] was below 1 µM; in test [2], below 0.05 µM.
The like results for `C[C@@H](NC(=O)[C@]1(F)CC[C@](C)(O)c2ncccc21)c1ccc(F)cc1Cl` [Example 270, (5S,8S)-N-((R)-1-(2-chloro-4-fluorophenyl)ethyl)-5-fluoro-8-hydroxy-8-methyl-5,6,7,8-tetrahydroquinoline-5-carboxamide] were, in that order, below 1 µM and below 0.05 µM.
`O=C(NCc1c(F)cc(Cl)cc1F)[C@]1(F)CC[C@@](O)(CO)c2ncccc21` [Example 324, (5S,8S)-N-(4-chloro-2,6-difluorobenzyl)-5-fluoro-8-hydroxy-8-(hydroxymethyl)-5,6,7,8-tetrahydroquinoline-5-carboxamide]: the IC50 is below 1 µM in test [1] and 0.05 to 0.1 µM in test [2].
The like results for `O=C(NCc1ccc(Cl)cc1Cl)[C@]1(F)CC[C@H](O)c2ncccc21` [Example 133, (5S,8S)—N-(2,4-dichlorobenzyl)-5-fluoro-8-hydroxy-5,6,7,8-tetrahydroquinoline-5-carb oxamide] were, in that order, below 1 µM and below 0.05 µM.
The like results for `CO[C@H]1CC[C@@](F)(C(=O)NCc2ccc(F)cc2F)c2cccnc21` [Example 342, (5S,8S)-N-(2,4-difluorobenzyl)-5-fluoro-8-methoxy-5,6,7,8-tetrahydroquinoline-5-carboxamide] were, in that order, below 1 µM and 0.05 to 0.1 µM.
The like results for `O=C(NC1CCOc2cc(Cl)cc(Cl)c21)[C@]1(F)CC[C@H](O)c2ncccc21` (stereo partly drawn) [Example 230, (5S,8S)-N-(5,7-dichlorochroman-4-yl)-5-fluoro-8-hydroxy-5,6,7,8-tetrahydroquinoline-5-carboxamide] were, in that order, below 1 µM and below 0.05 µM.
Consider `O=C(NCc1ccc(F)c(Cl)c1F)[C@]1(F)CC[C@@](O)(CO)c2ncccc21` [Example 323, (5S,8S)-N-(3-chloro-2,4-difluorobenzyl)-5-fluoro-8-hydroxy-8-(hydroxymethyl)-5,6,7,8-tetrahydroquinoline-5-carboxamide], for which the IC50 in test [1] is below 1 µM; in test [2], 0.101 to 0.3 µM.
Taken in the same sequence, the figures for `C[S+]([O-])C[C@]1(O)CC[C@@](F)(C(=O)NCc2ccc(F)cc2Cl)c2cccnc21` (stereo partly drawn) [Example 296, (5S,8S)-N-(2-chloro-4-fluorobenzyl)-5-fluoro-hydroxy-8-((methylsulfinyl)methyl)-5,6,7,8-tetrahydroquinoline-5-carboxamide] were below 1 µM and 0.05 to 0.1 µM.
Taken in the same sequence, the figures for `O=C(NCc1ccc(Cl)cc1Cl)[C@]1(F)CC[C@@H](O)c2ncccc21` [Example 106, (5S,8R)-N-(2,4-dichlorobenzyl)-5-fluoro-8-hydroxy-5,6,7,8-tetrahydroquinoline-5-carboxamide] were below 1 µM and below 0.05 µM.
Taken in the same sequence, the figures for `O=C(NCc1ccc(Cl)cc1Cl)C1(F)CCC(O)(CO)c2ncccc21` (centres unmarked) [Example 37, N-(2,4-dichlorobenzyl)-5-fluoro-8-hy-droxy-8-(hydroxymethyl)-5,6,7,8-tetra-hydroquinoline-5-carboxamide] were below 1 µM and below 0.05 µM.
For the molecule `O=C(NCc1cc(F)cc(Cl)c1)[C@]1(F)CC[C@H](O)c2ncccc21` [Example 203, (5S,8S)-N-(3-chloro-5-fluorobenzyl)-5-fluoro-8-hydroxy-5,6,7,8-tetrahydroquinoline-5-carboxamide], the results for the IC50 in test [1] and in test [2] were below 1 µM and 0.05 to 0.1 µM, respectively.
Taken in the same sequence, the figures for `O=C(NCc1cccc(Cl)c1Cl)[C@]1(F)CC[C@@H](O)c2ncccc21` (stereo in doubt) [Example 121, (5S,8RS)-N-(2,3-dichlorobenzyl)-5-fluoro-8-hydroxy-5,6,7,8-tetrahydroquinoline-5-carboxamide] were below 1 µM and 0.05 to 0.1 µM.
The like results for `N#CC[C@]1(O)CC[C@@](F)(C(=O)NCc2ccc(Cl)cc2Cl)c2cccnc21` [Example 280, (5S,8R)-8-(cyanomethyl)-N-(2,4-dichlorobenzyl)-5-fluoro-8-hydroxy-5,6,7,8-tetrahydroquinoline-5-carboxamide] were, in that order, below 1 µM and below 0.05 µM.
Taken in the same sequence, the figures for `C[C@]1(O)CC[C@@](F)(C(=O)NCc2ncc(Cl)cc2Cl)c2cccnc21` [Example 272, (5S,8S)-N-((3,5-dichloropyridin-2-yl)methyl)-5-fluoro-8-hydroxy-8-methyl-5,6,7,8-tetrahydroquinoline-5-carboxamide] were below 1 µM and below 0.05 µM.
For the molecule `O=C(NCc1ccc(F)cc1Cl)[C@@]1(F)CC[C@@H](O)c2ncccc21` [Example 134, (5R,8R)-N-(2-chloro-4-fluorobenzyl)-5-fluoro-8-hydroxy-5,6,7,8-tetrahydroquinoline-5-carboxamide], the 50% inhibitory concentration (IC50) in test [1] was below 1 µM; in test [2] it was 0.101 to 0.3 µM.
Regarding `O=C(NCc1ccc(F)cc1Cl)[C@]1(F)CC[C@H](OCCO)c2ncccc21` [Example 344, (5S,8S)-N-(2-chloro-4-fluorobenzyl)-5-fluoro-8-(2-hydroxyethoxy)-5,6,7,8-tetrahydroquinoline-5-carboxamide], the half-inhibitory concentration (IC50) is below 1 µM in test [1] and below 0.05 µM in test [2].
The like results for `O=C(NCc1cccc(C(F)(F)F)c1Cl)[C@]1(F)CC[C@H](O)c2ncccc21` [Example 129, (5S,8S)-N-(2-chloro-3-(trifluoromethyl)benzyl)-5-fluoro-8-hydroxy-5,6,7,8-tetrahydroquinoline-5-carboxamide] were, in that order, below 1 µM and below 0.05 µM.
Taken in the same sequence, the figures for `O=C(NCc1ccc(Cl)cc1Cl)[C@]1(F)CC[C@H](OCC(O)CO)c2ncccc21` (stereo partly drawn) [Example 349, (5S,8S)—N-(2,4-dichlorobenzyl)-8-(2,3-dihydroxypropoxy)-5-fluoro-5,6,7,8-tetrahydroquinoline-5-carboxamide] were below 1 µM and below 0.05 µM.
The like results for `O=C(NCc1ccc(F)cc1Cl)[C@]1(F)CC[C@@](O)(CN2CC(O)C2)c2ncccc21` (relative stereo) [Example 52, (5S*,8R*)-N-(2-chloro-4-fluorobenzyl)-5-fluoro-8-hy-droxy-8-((3-hydroxy-azetidin-1-yl)methyl)-5,6,7,8-tetrahydro-quinoline-5-carboxamide] were, in that order, below 1 µM and below 0.05 µM.
Regarding `O=C(NCc1ccc(Cl)cc1Cl)[C@]1(F)CC[C@H](O)c2ncc(F)cc21` [Example 241, (5S,8S)-N-(2,4-dichlorobenzyl)-3,5-difluoro-8-hydroxy-5,6,7,8-tetrahydroquinoline-5-carboxamide], the IC50 in test [1] is below 1 µM; in test [2] it was below 0.05 µM.
The like results for `O=C1CCC(F)(C(=O)NCc2c(Cl)cc(Cl)cc2CO)c2cccnc21` (centres unmarked) [Example 14, N-(2,4-dichloro-6-(hydroxymethyl)benzyl)-5-fluoro-8-oxo-5,6,7,8-tetrahydro-quinoline-5-carboxamide] were, in that order, below 1 µM and below 0.05 µM.
The like results for `O=C(NCc1ccc(Cl)cc1Cl)C1(F)CC(O)(CO)c2ncccc21` (centres unmarked) [Example 38, N-(2,4-dichlorobenzyl)-5-fluoro-7-hydroxy-7-(hydroxymethyl)-6,7-dihydro-5H-cyclopenta[b]pyridine-5-carboxamide] were, in that order, below 1 µM and 0.101 to 0.3 µM.
For the molecule `O=C(NCc1c(F)cc(Cl)cc1Cl)[C@]1(F)CC[C@@](O)(CO)c2ncccc21` [Example 310, (5S,8S)-N-(2,4-dichloro-6-fluorobenzyl)-5-fluoro-8-hydroxy-8-(hydroxymethyl)-5,6,7,8-tetrahydroquinoline-5-carboxamide], the concentration for half-maximal inhibition (IC50) is below 1 µM in test [1] and below 0.05 µM in test [2].
Taken in the same sequence, the figures for `O=C1CC[C@@](F)(C(=O)NCc2cccc(F)c2Cl)c2cccnc21` [Example 250, (S)-N-(2-chloro-3-fluorobenzyl)-5-fluoro-8-oxo-5,6,7,8-tetrahydro-quinoline-5-carboxamide] were below 1 µM and 0.101 to 0.3 µM.
The like results for `O=C(NCc1ccc(Cl)cc1F)[C@]1(F)CC[C@](O)(CO)c2ncccc21` [Example 315, (5S,8R)-N-(4-chloro-2-fluorobenzyl)-5-fluoro-8-hydroxy-8-(hydroxymethyl)-5,6,7,8-tetrahydroquinoline-5-carboxamide] were, in that order, below 1 µM and 1 to 3 µM.
Turning to `O=C1CCC(C(=O)NCc2cccc(C(F)(F)F)c2Cl)c2cccnc21` (centres unmarked) [Example 2, N-(2-chloro-3-(trifluoromethyl)benzyl)-8-oxo-5,6,7,8-tetrahydroquinoline-5-carboxamide], the IC50 in test [1] was below 1 µM; in test [2], below 0.05 µM.
